The IC50 is the point on the concentration scale where inhibition reaches its midpoint.

The structures appear in SMILES notation. Read-outs that look alike come from different tables or passages of the source.

Consider 15 compounds from patent US8946413B2 (Pfizer Inc., priority 2008, dated 2015).

In the assay the target is T1, CCR2 (Homo sapiens, UniProt P41597).
T1 construct: (leukophoresis pack); host or cells: human peripheral blood mononuclear cells (PBMCs) from a normal human leukophoresis pack
As to the kind of experiment: hCCR2 (125-I hMCP-1) small molecule binding assay on human PBMCs. Particulars: 125I-MCP-1, human PBMCs. From the text: The CCR2 antagonist activity of compounds of the invention can be reported as the inhibitor concentration required for 50% inhibition (IC50 values) of specific binding in receptor binding assays using 125I-labeled MCP-1, as ligand, and Peripheral Blood Mononuclear Cells (PBMCs) prepared from normal human whole blood via density gradient centrifugation. Specific binding is defined as the total binding (e.g., total cpm on filters) minus the non-specific binding. Non-specific binding is defined as the amount of cpm still defected in the presence of excess unlabeled competitor (e.g., MCP-1),
Human PBMCs were used to test compounds of the invention in a binding assay. For example, 200,000 to 500,000 cells were incubated with 0.1 to 0.2 nM 125I-labeled MCP-1, with or without unlabeled competitor (10 nM MCP-1) or various concentrations of compounds to be tested. 125I-labeled MCP-1, were prepared by suitable methods or purchased from commercial vendors (Perkin Elmer, Boston Mass.). The binding reactions were performed in 50 to 250 μL of a binding buffer consisting of […] pH 7.2, and 0.1% BSA (bovine serum albumin), for 30 minutes at room temperature. The binding reactions were terminated by harvesting the membranes by rapid filtration through glass fiber filters (Perkin Elmer) which was presoaked in 0.3% polyethyleneimine or Phosphate Buffered Saline (PBS). The filters were rinsed with approximately 600 μL of binding buffer containing, 0.5 M NaCl or PBS, then dried, and the amount of bound radioactivity was determined by counting on a Gamma Counter (Perkin Elmer).
More specifically, the following assay may be employed to determine IC50 values for the compounds of the present invention.
hCCR2 (125-I hMCP-1) Small Molecule Binding Assay
Normal human leukophoresis pack contents, available from Biological Specialty Corporation, Colmar, Pa., is diluted 1:1 with PBS, divided into 50 ml conical tubes (preferably less than 40 mls per tube), and underlayed with 10 mls of Ficoll-Paque PLUS (GE Healthcare 17-1440-02). The tubes are centrifuged at 2800 rpm in a clinical centrifuge at room temperature for 30 mins, with no brake. The plasma layer is suctioned, and the buffycoat layer is collected. The collected buffycoat layer is washed twice with 50 mls PBS, and centrifuged at 1400 rpm with brake. The cells are counted. The cells are then diluted to 1×10^7 cells per ml in binding buffer.
96 well plates (such as, for example, Millipore MultiScreen96 plates) are pre-wet with about 100 μl binding buffer (RPMI+0.1% BSA+20 mM HEPES), and blotted just prior to compound addition.
5 μl of 50 μM test compounds in 100% DMSO are dotted onto U-bottom polypropylene 96-well plates.
245 μl per well of Binding Buffer is added to each well for 1 μM compound concentration in 2% DMSO.
50 μl of 1 μM compound is transferred to pre-wetted Millipore plates. 50 μl per well of 1×10E7 cells per ml of freshly prepared human PBMCs are added.
The samples are pre-incubated at room temperature for 30 minutes or 1 hour.
50 μl of 450 pM 125-I-hMCP-1 (Perkin-Elmer/NEN cat#NEX332025UC) is added for a final concentration 125-I-hMCP-1 of 150 pM per well.
The final test compound concentration is 0.333 uM in 150 μl total volume with 0.67% DMSO in all wells. Controls for this assay consist of 0% inhibition and 100% inhibition with 1 uM hMCP-1 (saturating conditions). All wells are run in duplicate. Controls may be in replicates of eight.
The samples are incubated at room temperature for 30 minutes.
The buffer is suctioned through the Millipore plates. The plates are washed three times with Wash Buffer (PRMI+0.1% BSA+20 mM HEPES+ 0.4 M NaC).
The plate underdrain is removed. The plate filters are allowed to dry. The filters are then punched out into plastic tubes.
Finally, the sample is counted an a Gamma Counter.
All IC50 plates were repeated for an n=2.
The following table summarizes the IC50 values identified through the described assay.

Where [1] appears, read: 30 min preincubation, read-out: IC50 (nM) 30 min preinc.
Setting [2] is: 1 hr preincubation, read-out: IC50 (nM) 1 hr preinc.

T1 sequence (P41597 whole entry): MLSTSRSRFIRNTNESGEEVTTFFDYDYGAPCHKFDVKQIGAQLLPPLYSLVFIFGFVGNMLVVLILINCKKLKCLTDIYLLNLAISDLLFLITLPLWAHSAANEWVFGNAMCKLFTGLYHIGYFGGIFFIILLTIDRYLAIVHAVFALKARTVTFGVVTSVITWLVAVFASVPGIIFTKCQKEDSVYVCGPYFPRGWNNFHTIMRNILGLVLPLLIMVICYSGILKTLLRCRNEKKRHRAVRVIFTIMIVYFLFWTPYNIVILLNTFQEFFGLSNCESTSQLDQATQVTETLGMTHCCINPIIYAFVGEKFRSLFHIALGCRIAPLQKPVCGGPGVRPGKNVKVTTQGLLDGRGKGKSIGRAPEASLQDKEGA

For `CC[C@]1(C(=O)N2C[C@@H]3C[C@H]2CN3c2cc(C(F)(F)F)ccn2)CC[C@@H](N[C@H]2CCOC[C@H]2OC)C1` [Example 1, 1,5-anhydro-2,3-dideoxy-3-{[(1R,3S)-3-ethyl-3-({(1S,4S)-5-[4-(trifluoromethyl)pyridin-2-yl]-2,5-diazabicyclo[2.2.1]hept-2-yl}carbonyl)cyclopentyl]amino}-4-O-methyl-D-erythro-pentitol], the IC50 under setting [1] is 2.47 nM.
On the same count and under the same terms, the result for `CC[C@]1(C(=O)N2C[C@@H]3C[C@H]2CN3c2nccc(C(F)(F)F)n2)CC[C@@H](N[C@H]2CCOC[C@H]2OC)C1` [Example 2, 1,5-anhydro-2,3-dideoxy-3-{[(1R,3S)-3-ethyl-3-({(1S,4S)-5-[4-(trifluoromethyl)pyrimidin-2-yl]-2,5-diazabicyclo[2.2.1]hept-2-yl}carbonyl)cyclopentyl]amino}-4-O-methyl-D-erythro-pentitol] reads 3.16 nM; that for `CC[C@]1(C(=O)N2C[C@@H]3C[C@H]2CN3c2cc(C(F)(F)F)ncn2)CC[C@@H](N[C@H]2CCOC[C@H]2OC)C1` [Example 3, 1,5-anhydro-2,3-dideoxy-3-{[(1R,3S)-3-ethyl-3-({(1S,4S)-5-[6-(trifluoromethyl)pyrimidin-4-yl]-2,5-diazabicyclo[2.2.1]hept-2-yl}carbonyl)cyclopentyl]amino}-4-O-methyl-D-erythro-pentitol], 17.8 nM; that for `CC[C@]1(C(=O)N2C[C@@H]3C[C@H]2CN3c2cncc(C(F)(F)F)n2)CC[C@@H](N[C@H]2CCOC[C@H]2OC)C1` [Example 4, 1,5-anhydro-2,3-dideoxy-3-{[(1R,3S)-3-ethyl-3-({(1S,4S)-5-[6-(trifluoromethyl)pyrazin-2-yl]-2,5-diazabicyclo[2.2.1]hept-2-yl}carbonyl)cyclopentyl]amino}-4-O-methyl-D-erythro-pentitol], 3.98 nM.
Same read-out and setting: as for `CC[C@]1(C(=O)N2C[C@@H]3C[C@H]2CN3c2ccnc(C(F)(F)F)n2)CC[C@@H](N[C@H]2CCOC[C@H]2OC)C1` [Example 5, 1,5-anhydro-2,3-dideoxy-3-{[(1R,3S)-3-ethyl-3-({(1S,4S)-5-[2-(trifluoromethyl)pyrimidin-4-yl]-2,5-diazabicyclo[2.2.1]hept-2-yl}carbonyl)cyclopentyl]amino}-4-O-methyl-D-erythro-pentitol], the figure is 13.3 nM; as for `CC[C@]1(C(=O)N2C[C@@H]3C[C@H]2CN3c2cccc(C(F)(F)F)n2)CC[C@@H](N[C@H]2CCOC[C@H]2OC)C1` [Example 6, 1,5-anhydro-2,3-dideoxy-3-{[(1R,3S)-3-ethyl-3-({(1S,4S)-5-[6-(trifluoromethyl)pyridin-2-yl]-2,5-diazabicyclo[2.2.1]hept-2-yl}carbonyl)cyclopentyl]amino}-4-O-methyl-D-erythro-pentitol], 1.73 nM.
Consider `CC[C@]1(C(=O)N2C[C@@H]3C[C@H]2CN3c2ccnc(C(F)(F)F)c2)CC[C@@H](N[C@H]2CCOC[C@H]2OC)C1` [Example 7, 1,5-anhydro-2,3-dideoxy-3-{[(1R,3S)-3-ethyl-3-({(1S,4S)-5-[2-(trifluoromethyl)pyridin-4-yl]-2,5-diazabicyclo[2.2.1]hept-2-yl}carbonyl)cyclopentyl]amino}-4-O-methyl-D-erythro-pentitol], for which the IC50 under setting [1] amounted to 17.1 nM.
In the case of `CC[C@]1(C(=O)N2C[C@@H]3C[C@H]2CN3c2nccc(C(F)(F)F)c2F)CC[C@@H](N[C@H]2CCOC[C@H]2OC)C1` [Example 8, 1,5-anhydro-2,3-dideoxy-3-{[(1R,3S)-3-ethyl-3-({(1S,4S)-5-[3-fluoro-4-(trifluoromethyl)pyridin-2-yl]-2,5-diazabicyclo[2.2.1]hept-2-yl}carbonyl)cyclopentyl]amino}-4-O-methyl-D-erythro-pentitol], the IC50 under setting [1] was determined as 10.7 nM.
The same measure, in the same setting: the result for `CO[C@@H]1COCC[C@@H]1N[C@@H]1CC[C@](C)(C(=O)N2C[C@@H]3C[C@H]2CN3c2cc(C(F)(F)F)ccn2)C1` [Example 9, 1,5-anhydro-2,3-dideoxy-3-{[(1R,3S)-3-methyl-3-({(1S,4S)-5-[4-(trifluoromethyl)pyridine-2-yl]-2,5-diazabicyclo[2.2.1]hept-2-yl}carbonyl)cyclopentyl]amino}-4-O-methyl-D-erythro-pentitol] reads 30.7 nM.
Same read-out and setting: the result for `CO[C@@H]1COCC[C@@H]1N[C@@H]1CC[C@](C)(C(=O)N2C[C@@H]3C[C@H]2CN3c2cncc(C(F)(F)F)n2)C1` [Example 10, 1,5-anhydro-2,3-dideoxy-3-{[(1R,3S)-3-methyl-3-({(1S,4S)-5-[6-(trifluoromethyl)pyrazin-2-yl]-2,5-diazabicyclo[2.2.1]hept-2-yl}carbonyl)cyclopentyl]amino}-4-O-methyl-D-erythro-pentitol] reads 83.8 nM.
`CO[C@@H]1COCC[C@@H]1N[C@@H]1CC[C@@](C(=O)N2C[C@@H]3C[C@H]2CN3c2cc(C(F)(F)F)ccn2)(C(C)C)C1` [Example 11, 1,5-anhydro-2,3-dideoxy-3-{[(1R,3S)-3-isopropyl-3-({(1S,4S)-5-[4-(trifluoromethyl)pyridin-2-yl]-2,5-diazabicyclo[2.2.1]hept-2-yl}carbonyl)cyclopentyl]amino}-4-O-methyl-D-erythro-pentitol]: the 50% inhibitory concentration (IC50) worked out at 6.72 nM under setting [1] and 2.44 nM under setting [2].
Turning to `CO[C@@H]1COCC[C@@H]1N[C@@H]1CC[C@@](C(=O)N2C[C@@H]3C[C@H]2CN3c2nccc(C(F)(F)F)n2)(C(C)C)C1` [Example 12, 1,5-anhydro-2,3-dideoxy-3-{[(1R,3S)-3-isopropyl-3-({(1S,4S)-5-[4-(trifluoromethyl)pyrimidin-2-yl]-2,5-diazabicyclo[2.2.1]hept-2-yl}carbonyl)cyclopentyl]amino}-4-O-methyl-D-erythro-pentitol], the 50% inhibitory concentration (IC50) was 11.1 nM under setting [1] and 1.7 nM under setting [2].
In the case of `CO[C@@H]1COCC[C@@H]1N[C@@H]1CC[C@@](C(=O)N2C[C@@H]3C[C@H]2CN3c2cncc(C(F)(F)F)n2)(C(C)C)C1` [Example 14, 1,5-anhydro-2,3-dideoxy-3-{[(1R,3S)-3-isopropyl-3-({(1S,4S)-5-[6-(trifluoromethyl)pyrazin-2-yl]-2,5-diazabicyclo[2.2.1]hept-2-yl}carbonyl)cyclopentyl]amino}-4-O-methyl-D-erythro-pentitol], the IC50 runs as follows: under setting [1], 10.4 nM; under setting [2], 2.3 nM.
As to `CO[C@@H]1COCC[C@@H]1N[C@@H]1CC[C@@](C(=O)N2C[C@@H]3C[C@H]2CN3c2ccnc(C(F)(F)F)n2)(C(C)C)C1` [Example 15, 1,5-anhydro-2,3-dideoxy-3-{[(1R,3S)-3-isopropyl-3-({(1S,4S)-5-[2-(trifluoromethyl)pyrimidin-4-yl]-2,5-diazabicyclo[2.2.1]hept-2-yl}carbonyl)cyclopentyl]amino}-4-O-methyl-D-erythro-pentitol], the IC50 runs as follows: under setting [1], 40 nM; under setting [2], 4.6 nM.
The matching figures for `CO[C@@H]1COCC[C@@H]1N[C@@H]1CC[C@@](C(=O)N2C[C@@H]3C[C@H]2CN3c2cccc(C(F)(F)F)n2)(C(C)C)C1` [Example 16, 1,5-anhydro-2,3-dideoxy-3-{[(1R,3S)-3-isopropyl-3-({(1S,4S)-5-[6-(trifluoromethyl)pyridin-2-yl]-2,5-diazabicyclo[2.2.1]hept-2-yl}carbonyl)cyclopentyl]amino}-4-O-methyl-D-erythro-pentitol]: 9.95 nM and 1.1 nM.
